{"source": "patent US6649631B1", "about": "“Compositions and methods for treating bone deficit conditions” (The Board of Regents of the University of Texas System, priority 1999, dated 2003)", "key": {"neonatal mouse calvaria": {"system": "neonatal mouse calvaria", "test": "Ex vivo (neonatal mouse) calvarial bone growth assay", "format": "cell-based", "method": "This assay is similar to that described by Gowen M. & Mundy G. J Immunol (1986) 136:2478-82. Briefly, four days after birth, the front and parietal bones of ICR Swiss white mouse pups are removed by microdissection and split along the sagittal suture. The bones are incubated in BGJb medium (Irvine Scientific, Santa Ana, Calif.) plus 0.02% (or lower concentration) β-methylcyclodextrin, wherein the medium also contains test or control substances, at 37° C. in a humidified atmosphere of 5% CO2 and 95% air for 96 hours.\nFollowing this, the bones are removed from the incubation media and fixed in 10% buffered formalin for 24-48 hours, decalcified in 14% EDTA for 1 week, processed through graded alcohols; and embedded in paraffin wax. Three μm sections of the calvaria are prepared. Representative sections are selected for histomorphometric assessment of bone formation and bone resorption. Bone changes are measured on sections cut 200 μm apart. Osteoblasts and osteoclasts are identified by their distinctive morphology.\nA number of compounds, in particular, those studied in connection with lead compounds classified as hydrazone/hydrazides (H) exemplified by 59-0045, benzothiazoles (T) exemplified by 59-0104, bis-pyridines (P) exemplified by 59-0145, and quinolines/quinoxalines (Q) exemplified by 59-0197, were tested in the ex vivo calvarial assay described hereinabove.\nThe scores are assigned to bone formation on the ectocranial periosteal surface. The area immediately surrounding midline suture is excluded from analysis.\nIn all samples, toxicity, ectopic new or woven bone formation associated with osteoblasts, and osteoblast size as reflections of relative activity are noted."}, "BMP2 promoter": {"system": "BMP2 promoter", "test": "High throughput screening: BMP-2 promoter luciferase reporter in 2T3-BMP-2-LUC cells", "format": "cell-based, mouse", "source_text": "A rapid throughput screening test for compounds capable of stimulating expression of a reporter gene linked to a BMP promoter (a surrogate for the production of bone morphogenetic factors that are endogenously produced) is described in WO96/38590 published Dec. 5, 1996, the contents of which are incorporated herein by reference. This assay is also described as a portion of a study of immortalized murine osteoblasts (derived from a mouse expressing a transgene composed of a BMP2 promoter driving expression of T-antigen) in Ghosh-Choudhery, N. et al. Endocrinology (1996) 137:331-39. In this study, the immortalized cells were stably transfected with a plasmid containing a luciferase reporter gene driven by a mouse BMP2 promoter (−2736/114 bp), and responded in a dose-dependent manner to recombinant human BMP2.\nBriefly, the assay utilizes cells transformed permanently or transiently with constructs in which the promoter of a bone morphogenetic protein, specifically BMP2 or BMP4, is coupled to a reporter gene, typically luciferase. These transformed cells are then evaluated for the production of the reporter gene product; compounds that activate the BMP promoter will drive production of the reporter protein, which can be readily assayed. Over 40,000 compounds have been subjected to this rapid screening technique, and only a very small percentage are able to elicit a level of production of luciferase 5-fold greater than that produced by vehicle. […] The active compounds (“BMP promoter-active compounds” or “active compounds”) are useful in promoting bone or cartilage growth, and thus in the treatment of vertebrates in need of bone or cartilage growth.\nSeveral tens of thousands of compounds were tested in the assay system set forth in WO 96/38590, published Dec. 5, 1996, and incorporated herein by reference. […]\nThe treated cells were incubated for 24 hours at 37° C. and 5% CO2. […] Luminescence was measured on an automated 96-well luminometer, and was expressed as either picograms of luciferase activity per well or as picograms of luciferase activity per microgram of protein. […]"}, "ovariectomized rats": {"system": "ovariectomized rats", "test": "Stimulation of bone growth in ovariectomized rats (OVX assay)", "format": "in vivo, rat", "method": "Lead compounds also be tested in acute ovariectomized animals (prevention model) using an in vivo dosing assay. Such assays may also include an estrogen-treated group as a control. An exemplary subcutaneous dosing assay is performed as follows:\nIn a typical study, 80 three-month-old female Sprague-Dawley rats are weight-matched and divided into eight groups, with ten animals in each group. This includes a baseline control group of animals sacrificed at the initiation of the study; three control groups (sham ovariectomized (sham OVX)+vehicle only; ovariectomized (OVX)+vehicle only; PBS-treated OVX); and a control OVX group that is administered a compound known to promote bone growth. Three dosage levels of the compound to be tested are administered to the remaining three groups of OVX animals.\nSince ovariectomy (OVX) induces hyperphagia, all OVX animals are pair-fed with sham OVX animals throughout the 35 day study. Briefly, test compound, positive control compound, PBS, or vehicle alone is administered subcutaneously once per day for 35 days. Alternatively, test compound can be formulated in implantable pellets that are implanted for 35 days, or may be administered orally, such as by gastric gavage. All animals, including sham OVX/vehicle and OVX/vehicle groups, are injected intraperitoneally with calcein nine days and two days before sacrifice (two injections of calcein administered each designated day, to ensure proper labeling of newly formed bone). Weekly body weights are determined. At the end of the 35-day cycle, the animals' blood and tissues are processed as described above.\nLead compounds may also be tested in chronic OVX animals (treatment model). An exemplary protocol for treatment of established bone loss in ovariectomized animals that can be used to assess efficacy of anabolic agents may be performed as follows. Briefly, 80 to 100 six month old female, Sprague-Dawley rats are subjected to sham surgery (sham OVX) or ovariectomy (OVX) at time 0, and 10 rats are sacrificed to serve as baseline controls. Body weights are recorded weekly during the experiment. After approximately 6 weeks of bone depletion (42 days), 10 sham OVX and 10 OVX rats are randomly selected for sacrifice as depletion period controls. Of the remaining animals, 10 sham OVX and 10 OVX rats are used as placebo-treated controls. The remaining OVX animals are treated with 3 to 5 doses of test drug for a period of 5 weeks (35 days). As a postitive control, a group of OVX rats can be treated with an agent such as PTH, a known anabolic agent in this model (Kimmel et al. Endocrinology (1993) 132:1577-84). To determine effects on bone formation, the following procedure can be followed. The femurs, tibiae and lumbar vertebrae 1 to 4 are excised and collected. The proximal left and right tibiae are used for pqCT measurements, cancellous bone mineral density (BMD) (gravimetric determination), and histology, while the midshaft of each tibiae is subjected to cortical BMD or histology. The femurs are prepared for pqCT scanning of the midshaft prior to biomechanical testing. With respect to lumbar vertebrae (LV), LV2 are processed for BMD (pqCT may also be performed); LV3 are prepared for undecalcified bone histology; and LV4 are processed for mechanical testing.\nThe compound 59-0145 was tested at various concentrations in the OVX assay conducted as described above. The increase in bone volume was measured by two different groups; one group found 5 μg/kg/day of 59-0145 gave 21% increase over control whereas the second group found a 71% increase. At 50 μg/kg/day, the first group found a 31% increase, and the second a 54% increase.\nIn another experiment, 3 month old Sprague Dawley rats were ovariectomized and depleted for six weeks. At the end of the six weeks, treatment was started with subcutaneous administration of compound 59-0145. The treatment continued for 10 weeks. […]"}, "TMC-23 cells": {"system": "TMC-23 cells", "test": "Chondrogenic activity: alkaline phosphatase (ALP) activity in TMC-23 cells", "format": "cell-based, mouse", "conditions": "day 2, 10^−9 M", "procedure": "For measurement of alkaline phosphatase (ALP) activity, the technique of LF Bonewald et al. J. Biol Chem (1992) 267:8943-49, was employed. Briefly, TMC-23 cells were plated in 96 well microtiter plates in DMEM containing 10% FCS at 4×10^3 cells/well. Two days after plating, the cells were confluent and the medium was replaced with fresh medium containing 10% FCS and different concentrations of compounds or recombinant BMP-2. After an additional 2 or 5 days incubation, the plates were washed twice with PBS, and then lysing solution (0.05% Triton X-100) was added (100 μl/well). The cells were lysed by three freeze-thaw cycles of −70° C. (30 min), followed by 37° C. (30 min with shaking). Twenty microliters of cell lysates were assayed with 80 μl of 5 mM p-nitrophenol phosphate in 1.5 M 2-amino-2-methyl-propanol buffer, pH 10.3 (Sigma ALP kit, Sigma Chemical Co., St. Louis, Mo.) for 10 min at 37° C. The reaction was stopped by the addition of 100 μl of 0.5 M NaOH. The spectrophotometric absorbance at 405 nm was compared to that of p-nitrophenol standards to estimate ALP activity in the samples. The protein content of the cell lysates was determined by the Bio-Rad protein assay kit (Bio-Rad, Hercules, Calif.). Specific activity was calculated using these two parameters."}, "Swiss white mice": {"system": "Swiss white mice", "test": "In vivo assay of effects of compounds on murine calvarial bone growth", "parameters": "species or system mouse", "conditions": "as compared to a vehicle control", "method": "Male ICR Swiss white mice, aged 4-6 weeks and weighing 13-26 gm, are employed, using 4-5 mice per group. The calvarial bone growth assay is performed as described in PCT application WO 95/24211. Briefly, the test compound or appropriate control vehicle is injected into the subcutaneous tissue over the right calvaria of normal mice. Typically, the control vehicle is the vehicle in which the compound was solubilized, and is PBS containing 5% DMSO or is PBS containing Tween (2 μl/10 ml). The animals are sacrificed on day 14 and bone growth measured by histomorphometry. Bone samples for quantitation are cleaned from adjacent tissues and fixed in 10% buffered formalin for 24-48 hours, decalcified in 14% EDTA for 1-3 weeks, processed through graded alcohols; and embedded in paraffin wax. Three to five μm sections of the calvaria are prepared, and representative sections are selected for histomorphometric assessment of the effects on bone formation and bone resorption. Sections are measured by using a camera lucida attachment to trace directly the microscopic image onto a digitizing plate. Bone changes are measured on sections cut 200 μm apart, over 4 adjacent 1×1 mm fields on both the injected and noninjected sides of the calvaria. […]\nSimilar results are obtained when new bone width in microns is measured. […]"}}, "data": [{"smiles": "COc1cc(N(C)C)ccc1C=Cc1ccc2ccccc2n1", "note": "[Compound 59-0150]", "values": [{"measurement": "activity in the ex vivo calvarial assay, in words", "setting": "neonatal mouse calvaria", "value": "activity when measured by one group but not the other"}]}, {"smiles": "N#Cc1ccc(NCCNc2ccc(C(F)(F)F)cn2)nc1", "note": "[Compound 59-0483]", "values": [{"measurement": "performance in the screening assay relative to 59-0008", "setting": "BMP2 promoter", "value": "better than 59-0008"}]}, {"smiles": "FC(F)(F)c1ccc(NCCNc2ccc(C(F)(F)F)cn2)nc1", "note": "[Compound 59-0145]", "values": [{"measurement": "activity in the ex vivo calvarial assay, in words", "setting": "neonatal mouse calvaria", "value": "consistent moderate activity"}, {"measurement": "increase in bone volume over control", "setting": "ovariectomized rats; 5 μg/kg/day, first group of measurers", "value": 21, "unit": "%"}, {"measurement": "increase in bone volume over control", "setting": "ovariectomized rats; 5 μg/kg/day, second group of measurers", "value": 71, "unit": "%"}, {"measurement": "increase in bone volume over control", "setting": "ovariectomized rats; 50 μg/kg/day, first group of measurers", "value": 31, "unit": "%"}, {"measurement": "increase in bone volume over control", "setting": "ovariectomized rats; 50 μg/kg/day, second group of measurers", "value": 54, "unit": "%"}, {"measurement": "effect on lumbar vertebrae", "setting": "ovariectomized rats; 5 and 50 μg/kg/day, FIG. 10", "value": "beneficial effect"}, {"measurement": "increase in trabecular bone (proximal tibia) compared to placebo-treated group", "setting": "ovariectomized rats; chronic OVX rats, depleted 6 weeks, subcutaneous, 10 weeks of treatment, 50-500 μg/kg/day", "value": "significant increase"}]}, {"smiles": "CC(CNc1ccc(C(F)(F)F)cn1)Nc1ccc(C(F)(F)F)cn1", "note": "(centres unmarked) [Compound 59-0459]", "values": [{"measurement": "performance in the screening assay relative to 59-0008", "setting": "BMP2 promoter", "value": "better than 59-0008"}]}, {"smiles": "c1ccc(N=NC2=NNc3ccccc3S2)cc1", "note": "[Compound 59-0008, 3-phenylazo-1H-4,1,2-benzothiadiazine]", "values": [{"measurement": "response at maximal activity", "setting": "BMP2 promoter; at about 3 μM", "value": "approximately 175 light emission units"}, {"measurement": "increase of ALP levels compared to the vehicle control", "setting": "TMC-23 cells", "value": "approximately 3 fold"}, {"measurement": "increase in width of new calvarial bone", "setting": "Swiss white mice", "value": 4, "unit": "fold"}]}, {"smiles": "CN(C)c1ccc(C=Cc2cnc3ccccc3n2)cc1", "note": "[Compound 59-0019]", "values": [{"measurement": "activity in the ex vivo calvarial assay, in words", "setting": "neonatal mouse calvaria", "value": "at least some indication of activity"}]}]}
